From patent publication US20230212142A9, “Substituted 5-Cyclopropyl-1H-pyrazole-3-yl-amine Derivatives as Selective CDK12/13 Inhibitors” (Aurigene Discovery Technologies Limited, priority 2019, published 2023)

Columns and labels:
[1] = target: CDK13 (Homo sapiens, UniProt Q14004); assay: Biochemical assay for CDK13 (LanthaScreen Eu Kinase Binding Assay); conditions: kinase tracer 236 100 nM, CDK13 5 nM
Description: LanthaScreen Eu Kinase Binding Assays are based on the binding and displacement of Alexa Fluor 647-labeled, ATP-competitive kinase inhibitor scaffold (kinase tracer) to the kinase of interest. Binding of the kinase tracer 236 (100 nM) to the CDK13 (5 nM) kinase is detected using a europium-labelled anti- GST tag antibody (2 nM), which binds to the kinase. Simultaneous binding of the tracer and antibody to the kinase results in a high degree of FRET (fluorescence resonance energy transfer) from the europium (Eu) donor fluorophore to the Alexa Fluor™ 647 acceptor fluorophore on the kinase tracer. Binding of an inhibitor to the kinase competes for binding with the tracer, resulting in a loss of FRET signal.

[2] = target: T1, CDK7 (Homo sapiens, UniProt P50613); assay: Biochemical assay for CDK7 (LANCE TR-FRET, ULight-MBP phosphorylation); conditions: CDK7 10 nM, ATP 1 mM/100 μM, 60 min pre-incubation
Description: The inhibitory activity of the test compounds was assessed by the LANCE TR-FRET assay, which detects the ATP-dependent phosphorylation of an ULight-myelin basic protein (MBP) substrate peptide (100 nM) by CDK7 (10 nM). Briefly, the enzyme reaction was run in reaction buffer (20 mM HEPES (pH 7.5), 10 mM MgCl2, 0.01% Triton x, 100 μM Sodium Orthovanadate, 1 mM DTT). The assay was performed in 384-well plate. The end concentration of the ATP substrate was 1 mM/100 μM, and that of the ULight-MBP substrate peptide was 100 nM, and of CDK7 was 10 nM. Pre-incubation of the compound and enzyme was performed for 60 min at room temperature. After 60 min incubation at room temperature, the reaction was terminated by the addition of 40 mM EDTA and 1 nM Eu-labeled anti-phospho-MBP-binding protein antibody in the buffer. Time-resolved fluorescence (excitation, 320 nm; emission donor, 615 nm; emission acceptor, 665 nm) was monitored by using 2030 multilabel reader Victor5 (PerkinElmer). The readout was calculated as (acceptor counts/donor counts)×1000. The IC50 values were derived by fitting a sigmoidal dose-response curve to a plot of assay readout over inhibitor concentration. All fits were computed with the program Prism 5.03 (Graph Pad Software, San Diego, Calif.).
Target sequence in this assay (P50613 whole entry, species assumed): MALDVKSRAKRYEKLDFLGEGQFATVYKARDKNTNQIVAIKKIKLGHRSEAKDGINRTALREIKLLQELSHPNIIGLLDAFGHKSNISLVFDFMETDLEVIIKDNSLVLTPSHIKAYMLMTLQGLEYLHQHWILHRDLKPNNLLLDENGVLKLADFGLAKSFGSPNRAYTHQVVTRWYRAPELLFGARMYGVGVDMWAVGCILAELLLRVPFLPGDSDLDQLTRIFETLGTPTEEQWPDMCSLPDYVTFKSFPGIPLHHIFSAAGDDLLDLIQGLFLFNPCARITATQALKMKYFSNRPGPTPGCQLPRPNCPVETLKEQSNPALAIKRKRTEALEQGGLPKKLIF
Target sequence in this assay (P51946 whole entry partner, species assumed): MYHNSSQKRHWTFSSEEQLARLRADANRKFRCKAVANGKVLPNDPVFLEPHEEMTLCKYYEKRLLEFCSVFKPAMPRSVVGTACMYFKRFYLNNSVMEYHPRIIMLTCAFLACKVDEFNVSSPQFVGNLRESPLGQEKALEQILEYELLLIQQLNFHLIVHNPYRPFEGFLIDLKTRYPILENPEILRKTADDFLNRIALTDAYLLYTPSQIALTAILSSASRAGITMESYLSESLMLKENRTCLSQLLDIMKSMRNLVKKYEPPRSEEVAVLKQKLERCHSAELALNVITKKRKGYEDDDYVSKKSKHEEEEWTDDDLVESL
Target sequence in this assay (P51948 whole entry partner, species assumed): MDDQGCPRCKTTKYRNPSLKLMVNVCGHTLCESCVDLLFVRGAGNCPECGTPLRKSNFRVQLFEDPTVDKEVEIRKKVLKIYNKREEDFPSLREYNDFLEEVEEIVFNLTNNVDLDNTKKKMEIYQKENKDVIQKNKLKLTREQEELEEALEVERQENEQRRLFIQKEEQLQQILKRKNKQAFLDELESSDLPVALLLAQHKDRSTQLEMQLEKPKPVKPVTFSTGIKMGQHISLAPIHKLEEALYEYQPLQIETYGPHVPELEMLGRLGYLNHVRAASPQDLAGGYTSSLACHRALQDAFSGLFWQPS

[3] = target: T2, CDK12 (Homo sapiens, UniProt Q9NYV4); assay: CDK12 plate based target engagement assay in Jurkat cells; format: cell-based; parameters: endogenous in cells; host or cells: Jurkat; conditions: 6 hours treatment, Bio-THZ531 competition
Description: Jurkat cells were treated with varying concentrations of the compound for 6 hours. The DMSO concentration was maintained at 0.1%. Cells were harvested and lysed. 200 μg of the lysate was incubated with 1 μM Bio-THZ531 in the presence of 1mM DTT and incubated on a rocker at 4° C. overnight. 100 μL of this sample was added to pre-washed streptavidin coated plates and incubated at room temperature on a rocker for 2 hours. The plates were washed and incubated with CDK12 antibody for overnight at 4° C. Next day the plate was washed and incubated for 2 hours with HRP labelled anti rabbit secondary antibody. Bio-THZ531 bound CDK12 was determined using TMB substrate. The plates were read using the M3 spectrophotometer at […]. Percentage CDK12 occupancy with the test compound was calculated over untreated control. Occupancy50 was calculated by fitting the dose response data to sigmoidal curve fitting equation using GraphPad Prism software V5.

[4] = target: T1, CDK7; assay: CDK7 target occupancy in Jurkat cells; format: cell-based; parameters: endogenous in cells; host or cells: Jurkat
Target sequence in this assay (P50613 2-346 limits assumed): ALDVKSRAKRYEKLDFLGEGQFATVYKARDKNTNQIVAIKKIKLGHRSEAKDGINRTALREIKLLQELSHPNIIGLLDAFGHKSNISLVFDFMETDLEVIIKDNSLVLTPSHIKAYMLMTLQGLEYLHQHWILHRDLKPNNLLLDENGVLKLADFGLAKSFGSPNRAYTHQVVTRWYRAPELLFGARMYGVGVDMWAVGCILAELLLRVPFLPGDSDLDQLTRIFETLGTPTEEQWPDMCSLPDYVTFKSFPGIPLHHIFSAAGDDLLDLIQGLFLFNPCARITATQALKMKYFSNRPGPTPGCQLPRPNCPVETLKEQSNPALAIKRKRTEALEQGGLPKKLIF
Target sequence in this assay (P51946 whole entry partner): as the sequence (P51946 whole entry partner, species assumed) above
Target sequence in this assay (P51948 whole entry partner): as the sequence (P51948 whole entry partner, species assumed) above

[5] = target: T2, CDK12; assay: Biochemical assay for CDK12 (kinase-tagged phage / qPCR competition binding); parameters: host or cells: E. coli BL21-derived host (T7 phage display) or HEK-293
Description: Kinase-tagged T7 phage strains were grown in parallel in 24-well blocks in an E. coli host derived from the BL21 strain. E. coli were grown to log-phase and infected with T7 phage from a frozen stock (multiplicity of infection=0.4) and incubated with shaking at 32° C. until lysis (90-150 minutes). The lysates were centrifuged (6,000×g) and filtered (0.2 μm) to remove cell debris. The remaining kinases were produced in HEK-293 cells and subsequently tagged with DNA for qPCR detection. Streptavidin-coated magnetic beads were treated with biotinylated small molecule ligands for 30 minutes at room temperature to generate affinity resins for kinase assays. The liganded beads were blocked with excess biotin and washed with blocking buffer (SeaBlock (Pierce), 1% BSA, 0.05% Tween 20, 1 mM
DTT) to remove unbound ligand and to reduce non-specific phage binding. Binding reactions were assembled by combining kinases, liganded affinity beads, and test compounds in lx binding buffer (20% SeaBlock, 0.17×PBS, 0.05% Tween 20, 6 mM DTT). Test compounds were prepared as 40× stocks in 100% DMSO and directly diluted into the assay. All reactions were performed in polypropylene 384-well plates in a final volume of 0.02 ml. The assay plates were incubated at room temperature with shaking for 1 hour and the affinity beads were washed with wash buffer (1 PBS, 0.05% Tween 20). The beads were then re-suspended in elution buffer (1× PBS, 0.05% Tween 20, 0.5 μM non-biotinylated affinity ligand) and incubated at room temperature with shaking for 30 minutes. The kinase concentration in the eluates was measured by qPCR.
Target sequence in this assay (Q9NYV4 whole entry, species assumed): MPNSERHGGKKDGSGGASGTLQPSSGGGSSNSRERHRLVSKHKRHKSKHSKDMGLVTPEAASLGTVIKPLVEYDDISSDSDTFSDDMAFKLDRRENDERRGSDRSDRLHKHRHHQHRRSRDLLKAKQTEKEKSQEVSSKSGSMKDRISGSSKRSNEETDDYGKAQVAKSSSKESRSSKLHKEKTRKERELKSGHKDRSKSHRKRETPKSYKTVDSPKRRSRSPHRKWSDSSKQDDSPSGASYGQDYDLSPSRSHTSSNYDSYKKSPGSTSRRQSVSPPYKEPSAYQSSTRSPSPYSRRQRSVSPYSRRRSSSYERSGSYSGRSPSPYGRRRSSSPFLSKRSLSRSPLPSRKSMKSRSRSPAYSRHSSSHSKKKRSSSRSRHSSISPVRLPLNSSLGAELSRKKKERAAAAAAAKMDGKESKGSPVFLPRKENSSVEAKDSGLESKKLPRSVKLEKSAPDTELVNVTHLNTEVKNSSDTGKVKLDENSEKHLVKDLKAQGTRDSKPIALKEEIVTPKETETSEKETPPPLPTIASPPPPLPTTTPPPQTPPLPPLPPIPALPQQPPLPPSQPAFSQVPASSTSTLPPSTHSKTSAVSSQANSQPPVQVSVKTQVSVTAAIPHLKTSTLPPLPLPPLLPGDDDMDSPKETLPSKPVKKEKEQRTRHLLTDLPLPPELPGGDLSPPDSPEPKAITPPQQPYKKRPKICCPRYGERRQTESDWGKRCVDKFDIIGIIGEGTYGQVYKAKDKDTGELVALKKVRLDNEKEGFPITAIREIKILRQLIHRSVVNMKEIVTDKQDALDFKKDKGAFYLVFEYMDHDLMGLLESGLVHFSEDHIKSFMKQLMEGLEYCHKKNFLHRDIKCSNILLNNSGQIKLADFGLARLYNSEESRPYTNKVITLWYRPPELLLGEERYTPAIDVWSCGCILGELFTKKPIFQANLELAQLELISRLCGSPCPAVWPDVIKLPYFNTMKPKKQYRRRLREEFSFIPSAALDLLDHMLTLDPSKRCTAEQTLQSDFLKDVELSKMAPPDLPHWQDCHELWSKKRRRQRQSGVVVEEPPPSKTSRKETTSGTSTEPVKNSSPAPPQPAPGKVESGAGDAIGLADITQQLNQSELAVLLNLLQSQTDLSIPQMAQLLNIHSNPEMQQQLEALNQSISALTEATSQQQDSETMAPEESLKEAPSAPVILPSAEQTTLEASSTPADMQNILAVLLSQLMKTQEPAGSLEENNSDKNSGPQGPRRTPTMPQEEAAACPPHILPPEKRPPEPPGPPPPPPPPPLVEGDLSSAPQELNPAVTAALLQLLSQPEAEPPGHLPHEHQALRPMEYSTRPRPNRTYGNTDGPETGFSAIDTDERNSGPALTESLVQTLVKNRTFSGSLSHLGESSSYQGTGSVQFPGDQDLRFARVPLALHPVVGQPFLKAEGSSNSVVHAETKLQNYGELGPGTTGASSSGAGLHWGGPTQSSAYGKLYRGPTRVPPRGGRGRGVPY

Sequence of CDK13 (Q14004 whole entry, species assumed): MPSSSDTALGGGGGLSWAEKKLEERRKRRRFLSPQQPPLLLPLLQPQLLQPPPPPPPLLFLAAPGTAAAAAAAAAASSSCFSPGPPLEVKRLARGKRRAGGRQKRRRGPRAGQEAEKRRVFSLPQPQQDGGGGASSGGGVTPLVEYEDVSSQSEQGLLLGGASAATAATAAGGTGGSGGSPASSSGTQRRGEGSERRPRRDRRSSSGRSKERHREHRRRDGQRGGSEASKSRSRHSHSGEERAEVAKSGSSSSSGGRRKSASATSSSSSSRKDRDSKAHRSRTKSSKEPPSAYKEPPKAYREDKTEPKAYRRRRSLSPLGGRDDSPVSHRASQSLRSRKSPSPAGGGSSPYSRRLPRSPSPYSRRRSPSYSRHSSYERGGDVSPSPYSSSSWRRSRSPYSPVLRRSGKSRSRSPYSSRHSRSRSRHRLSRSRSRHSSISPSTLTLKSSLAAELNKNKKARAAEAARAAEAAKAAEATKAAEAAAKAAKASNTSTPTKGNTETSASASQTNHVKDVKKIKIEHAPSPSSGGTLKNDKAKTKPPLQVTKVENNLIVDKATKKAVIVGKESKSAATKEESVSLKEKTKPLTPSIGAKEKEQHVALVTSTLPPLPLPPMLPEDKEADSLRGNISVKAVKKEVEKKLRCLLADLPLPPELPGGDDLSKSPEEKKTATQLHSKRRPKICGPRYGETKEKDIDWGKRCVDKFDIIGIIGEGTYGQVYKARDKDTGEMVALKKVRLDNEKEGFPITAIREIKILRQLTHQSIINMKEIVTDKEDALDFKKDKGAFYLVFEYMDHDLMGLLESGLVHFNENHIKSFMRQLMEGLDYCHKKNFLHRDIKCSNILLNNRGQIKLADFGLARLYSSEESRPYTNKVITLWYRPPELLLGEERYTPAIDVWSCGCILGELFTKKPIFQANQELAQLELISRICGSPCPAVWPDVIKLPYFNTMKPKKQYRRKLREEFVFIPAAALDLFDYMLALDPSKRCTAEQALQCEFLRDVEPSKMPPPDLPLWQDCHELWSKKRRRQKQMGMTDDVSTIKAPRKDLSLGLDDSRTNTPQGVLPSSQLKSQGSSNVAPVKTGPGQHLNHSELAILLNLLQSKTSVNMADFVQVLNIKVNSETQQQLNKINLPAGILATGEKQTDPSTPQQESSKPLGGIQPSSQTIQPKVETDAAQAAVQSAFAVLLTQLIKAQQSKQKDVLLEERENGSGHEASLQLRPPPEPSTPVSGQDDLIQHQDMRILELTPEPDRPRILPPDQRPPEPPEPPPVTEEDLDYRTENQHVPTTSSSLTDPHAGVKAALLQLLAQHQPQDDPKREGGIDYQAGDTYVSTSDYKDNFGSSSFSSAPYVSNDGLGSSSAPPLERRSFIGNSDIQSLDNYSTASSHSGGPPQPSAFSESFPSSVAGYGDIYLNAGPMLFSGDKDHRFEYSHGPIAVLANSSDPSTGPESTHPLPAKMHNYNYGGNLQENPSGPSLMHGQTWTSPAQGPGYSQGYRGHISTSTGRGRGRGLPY
Sequence of CDK13 (O75909 whole entry partner, species assumed): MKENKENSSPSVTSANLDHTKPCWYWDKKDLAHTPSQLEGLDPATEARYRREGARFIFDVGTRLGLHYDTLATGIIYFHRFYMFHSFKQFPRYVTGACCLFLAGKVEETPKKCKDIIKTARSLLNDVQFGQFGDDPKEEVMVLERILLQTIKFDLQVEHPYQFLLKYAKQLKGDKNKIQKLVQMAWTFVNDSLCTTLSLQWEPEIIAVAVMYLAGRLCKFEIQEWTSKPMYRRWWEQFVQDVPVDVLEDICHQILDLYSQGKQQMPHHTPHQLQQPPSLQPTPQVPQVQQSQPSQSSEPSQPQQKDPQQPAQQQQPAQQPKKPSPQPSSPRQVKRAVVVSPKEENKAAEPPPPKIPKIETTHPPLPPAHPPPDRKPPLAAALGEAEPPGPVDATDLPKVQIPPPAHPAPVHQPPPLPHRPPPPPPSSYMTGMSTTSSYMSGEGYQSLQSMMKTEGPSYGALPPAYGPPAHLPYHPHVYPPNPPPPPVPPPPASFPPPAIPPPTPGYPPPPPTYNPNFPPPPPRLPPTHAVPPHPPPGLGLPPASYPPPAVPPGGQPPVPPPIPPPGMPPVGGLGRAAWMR

| Compound | IC50 [1] | IC50 [2] | Jurkat Cells, CDK12 Target Occ50 [3] | Jurkat Cells, CDK7 Target Occ50 [4] | Kd [5] | Fold CDK7 Target Occ50 over CDK12 Target Occ50 ([4]; printed in brackets beside the CDK7 Occ50) |
| --- | --- | --- | --- | --- | --- | --- |
| C=CC(=O)NCc1ccc(-c2ccc([C@H](C)C(=O)Nc3cc(C4CC4)[nH]n3)cc2)cn1 [Compound 8, (S)-N-((5-(4-(1-((5-cyclopropyl-1H-pyrazol-3-yl)amino)-1-oxopropan-2-yl)phenyl)pyridin-2-yl)methyl)acrylamide] | 3.8 nM | 5380 nM | 0.022 µM | >>2 μM | < 50 nM | – |
| C=CC(=O)NC1(c2ccc(-c3ccc([C@H](C)C(=O)Nc4cc(C5CC5)[nH]n4)cc3)cn2)CC1 [Compound 18, (S)-N-(1-(5-(4-(1-((5-cyclopropyl-1H-pyrazol-3-yl)amino)-1-oxopropan-2-yl)phenyl)pyridin-2-yl)cyclopropyl)acrylamide] | 119 nM | 5450 nM | – | – | < 50 nM | – |
| C=CC(=O)NC(C)c1ccc(-c2ccc([C@H](C)C(=O)Nc3cc(C4CC4)[nH]n3)cc2)cn1 (stereo partly drawn) [Compound 20, N-(1-(5-(4-((S)-1-((5-cyclopropyl-1H-pyrazol-3-yl)amino)-1-oxopropan-2-yl)phenyl)pyridin-2-yl)ethyl)acrylamide] | 36.2 nM | 2870 nM | – | – | < 50 nM | – |
| C=CC(=O)NCc1ncc(-c2ccc([C@H](C)C(=O)Nc3cc(C4CC4)[nH]n3)cc2)cc1F [Compound 21, (S)-N-((5-(4-(1-((5-cyclopropyl-1H-pyrazol-3-yl)amino)-1-oxopropan-2-yl)phenyl)-3-fluoropyridin-2-yl)methyl)acrylamide] | 87.7 nM | 1310 nM | – | – | < 50 nM | – |
| C=CC(=O)NCc1ccc(-c2ccc(C(C)C(=O)Nc3cc(C4CC4)[nH]n3)cc2)nc1 (centres unmarked) [Compound 22, N-((6-(4-(1-((5-cyclopropyl-1H-pyrazol-3-yl)amino)-1-oxopropan-2-yl)phenyl)pyridin-3-yl)methyl)acrylamide] | 20.9 nM | 5300 nM | – | – | < 50 nM | – |
| C=CC(=O)NCc1ccc(-c2cccc(C(C)C(=O)Nc3cc(C4CC4)[nH]n3)c2)cn1 (centres unmarked) [Compound A] | – | – | 0.23 µM | 0.61 µM | – | 2 × |
